These results are taken from US9617225B2 (VIROSTATICS SRL, priority 2012, dated 2017).

In data set [1] the target is human CDK9/CyclinT kinase complex (Homo sapiens (Human), UniProt P50750). Briefly: In Vitro CDK9/CyclinT Assay (IMAP fluorescent polarization). It is filed as biochemical. How it is done:
In Vitro CDK9/CyclinT Assay
The activity of the compounds described in the present invention can be determined by measuring the phosphorylation of a fluorescently-labeled peptide by human CDK9/CyclinT kinase complex by fluorescent polarization using a commercially available IMAP Screening Express Assay Kit (Molecular devices).
Test compounds were diluted in 100% DMSO to 5 mM stock concentration, then further dilutions were made in H2O or 100% DMSO to desirable concentrations. Each reaction consisted of 5 nM enzyme: CDK9/CyclinT (Proqinase cat#0371-0345-1), 400 nM TAMRA-Rbtide (synthetic 15-mer peptide derived from human retinoblastoma tumor suppressor protein labeled with TAMRA dye, Genecust Europe), 12 μM ATP (=Kmapp, Sigma-Aldrich) and kinase buffer: 20 mM MOPS pH 7 (Sigma-Aldrich), 1 mM DTT (Sigma-Aldrich), 10 mM MgCl2 (Sigma-Aldrich), 0.01% Tween 20 (Sigma-Aldrich).
For each reaction, 4 or 6 μl containing TAMRA-Rbtide, ATP and kianse buffer were combined with 2 μl diluted compound in H2O or 0.028 μl compound in 100% DMSO. The kinase reaction was started by the addition of 2 μl diluted enzyme. The reaction was allowed to run for 1 hour at room temperature. The reaction was stopped by adding 15 μl IMAP beads (1:400 beads in progressive (100% buffer A) 1× buffer).

A further data set deals with Primary T cells. Briefly: Cytotoxicity, viability by flow cytometry. It counts as cell-based. As to the method:
Primary T cells are cultured and treated with different concentrations of the test compound. Viability is analysed by measuring through flow cytometry based techniques the percentage of viable cells, compared to untreated control=100%).

[2] abbreviates: Table 4, toxic dose 50%, viable cells.

As a reminder, the pIC50 is −log10 of the IC50, conventionally taken in molar units. Read a high pIC50 as a low IC50.

pIC50: −log10 of the molar value. Like-named read-outs stand apart in the source and are kept apart here.

Sequence of human CDK9/CyclinT kinase complex (P50750 whole entry): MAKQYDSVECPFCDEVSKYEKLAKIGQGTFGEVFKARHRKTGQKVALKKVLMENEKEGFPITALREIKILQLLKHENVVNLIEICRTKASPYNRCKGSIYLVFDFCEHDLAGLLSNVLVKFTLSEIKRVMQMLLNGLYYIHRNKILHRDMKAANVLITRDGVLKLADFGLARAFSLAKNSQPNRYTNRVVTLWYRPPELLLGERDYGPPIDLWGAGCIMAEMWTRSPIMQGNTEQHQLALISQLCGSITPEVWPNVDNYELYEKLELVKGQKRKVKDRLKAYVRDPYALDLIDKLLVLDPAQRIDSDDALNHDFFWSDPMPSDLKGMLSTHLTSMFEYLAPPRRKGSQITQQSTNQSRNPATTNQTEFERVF
Sequence of human CDK9/CyclinT kinase complex (O60563 whole entry partner): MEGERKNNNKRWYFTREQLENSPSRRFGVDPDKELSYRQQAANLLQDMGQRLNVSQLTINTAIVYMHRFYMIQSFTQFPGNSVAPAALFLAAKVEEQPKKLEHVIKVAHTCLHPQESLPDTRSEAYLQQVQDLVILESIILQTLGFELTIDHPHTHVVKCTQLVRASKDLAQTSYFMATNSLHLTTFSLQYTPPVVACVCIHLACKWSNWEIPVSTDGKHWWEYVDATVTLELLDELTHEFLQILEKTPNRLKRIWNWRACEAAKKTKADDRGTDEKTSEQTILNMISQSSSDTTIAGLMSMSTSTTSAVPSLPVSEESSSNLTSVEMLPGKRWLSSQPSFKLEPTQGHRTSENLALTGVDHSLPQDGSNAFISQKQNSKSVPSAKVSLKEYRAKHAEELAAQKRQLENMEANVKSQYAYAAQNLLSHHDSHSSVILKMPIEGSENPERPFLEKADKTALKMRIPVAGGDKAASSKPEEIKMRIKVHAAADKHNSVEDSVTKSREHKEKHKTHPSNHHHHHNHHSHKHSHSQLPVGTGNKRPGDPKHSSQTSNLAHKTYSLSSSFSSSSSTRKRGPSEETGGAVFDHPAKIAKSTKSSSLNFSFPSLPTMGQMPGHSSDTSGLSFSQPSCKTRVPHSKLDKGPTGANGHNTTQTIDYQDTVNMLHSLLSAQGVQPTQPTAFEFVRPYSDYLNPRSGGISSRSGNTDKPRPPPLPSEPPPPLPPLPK

`COc1ccc(Nc2cc(-c3ccccc3OC)ncn2)cc1C(=O)NN` [Example 33, 2-Methoxy-5-(6-(2-methoxyphenyl)pyrimidin-4-ylamino)benzohydrazide] gave a pIC50 in data set [1] (Table 1) above 7.00. The “TD50” value with Primary T cells was above 5 µM.

Regarding `COc1ccc(Nc2cc(-c3ccccc3OC)ncn2)cc1CNc1ccccc1` [Example 34, N-(4-Methoxy-3-((phenylamino)methyl)phenyl)-6-(2-methoxyphenyl)pyrimidin-4-amine], in data set [1], the pIC50 is above 5.00. For the same compound, the “TD50” value with Primary T cells was above 5 µM.

For `COc1ccc(Nc2cc(-c3ccccc3OC)ncn2)cc1OCc1ccccc1` [Example 36, N-(3-(Benzyloxy)-4-methoxyphenyl)-6-(2-methoxyphenyl)pyrimidin-4-amine], the pIC50 in data set [1] was above 5.00. In the data set with Primary T cells (setting [2]), the “TD50” value is above 5 µM.

For `COc1ccccc1-c1cc(Nc2ccc(N3CCN(C)CC3)c(S(N)(=O)=O)c2)ncn1` [Example 38, 5-(6-(2-Methoxyphenyl)pyrimidin-4-ylamino)-2-(4-methylpiperazin-1-yl)benzenesulfonamide], the negative-log IC50 (pIC50) in data set [1] (Table 1) is above 7.00. Moreover, the “TD50” value with Primary T cells is below 1.5 µM.

`CCOc1ccc(Nc2cc(-c3ccccc3OC)ncn2)cc1Cn1cnc2ccccc21` [Example 39, N-(3-((1H-Benzo[d]imidazol-1-yl)methyl)-4-ethoxyphenyl)-6-(2-methoxyphenyl)pyrimidin-4-amine]: the pIC50 in data set [1] (Table 1) was above 7.00. Also, the “TD50” value in the data set on Primary T cells came to 0.6 µM.

Take `COc1ccccc1-c1cc(Nc2ccc(F)c(Cn3cnc4ccccc43)c2)ncn1` [Example 40, N-(3-((1H-Benzo[d]imidazol-1-yl)methyl)-4-fluorophenyl)-6-(2-methoxyphenyl)pyrimidin-4-amine]: the pIC50 in data set [1] (Table 1) was above 7.00. Besides, in the data set with Primary T cells, the “TD50” value is 0.4 µM.

`COc1ccccc1-c1cc(Nc2ccc(Cl)c(C(N)=O)c2)ncn1` [Example 44, 2-Chloro-5-(6-(2-methoxyphenyl)pyrimidin-4-ylamino)benzamide]: the pIC50 in data set [1] was above 6.00. The “TD50” value in the data set with Primary T cells is above 5 µM.

As to `COc1ccc(Nc2cc(-c3ccccc3OC)ncn2)cc1C(=O)N(C)N` [Example 46, 2-Methoxy-5-[6-(2-methoxy-phenyl)-pyrimidin-4-ylamino]-benzoic acid N-methyl-hydrazide], the pIC50 in data set [1] (Table 1) and in data set [1] (Table 5) was above 6.00 throughout. Moreover, the “TD50” value with Primary T cells (setting [2]) and in the data set on Primary T cells (Table 5) was above 10 µM in each case.

In the case of `COc1ccc(-c2cc(Nc3ccc(OC)c(N)c3)ncn2)cc1` [Example 66, 4-Methoxy-N^1-[6-(4-methoxy-phenyl)-pyrimidin-4-yl]-benzene-1,3-diamine], the pIC50 in data set [1] was below 5.00. Moreover, in the data set on Primary T cells, the “TD50” value is above 10 µM.

In turn, `COc1cccc(-c2cc(Nc3ccc(OC)c(N)c3)ncn2)c1` [Example 68, 4-Methoxy-N^1-[6-(3-methoxy-phenyl)-pyrimidin-4-yl]-benzene-1,3-diamine] showed a pIC50 in data set [1] (Table 1) below 5.00. Moreover, the “TD50” value in the data set on Primary T cells is above 10 µM.

Consider `COc1ccc(Nc2cc(-c3ccccc3O)ncn2)cc1N` [Example 70, 2-[6-(3-Amino-4-methoxy-phenylamino)-pyrimidin-4-yl]-phenol], for which the pIC50 in data set [1] (Table 1) is below 5.00. Further, the “TD50” value with Primary T cells was above 10 µM.

Regarding `COc1ccc(Nc2cc(-c3ccccc3OCc3ccccc3)ncn2)cc1N` [Example 71, N^1-[6-(2-Benzyloxy-phenyl)-pyrimidin-4-yl]-4-methoxy-benzene-1,3-diamine], the pIC50 in data set [1] (Table 1) and in data set [1] (Table 5) was above 6.00 throughout. The “TD50” value in the data set with Primary T cells is above 10 µM.

The compound `COc1ccc(Nc2cc(-c3ccccc3Oc3ccccc3)ncn2)cc1N` [Example 77, 4-Methoxy-N^1-[6-(2-phenoxy-phenyl)-pyrimidin-4-yl]-benzene-1,3-diamine] showed a pIC50 in data set [1] (Table 1) above 5.00. Also, in the data set with Primary T cells, the “TD50” value turned out to be 10 µM.

In data set [1], `COc1ccc(Nc2cc(-c3cccc(F)c3OC)ncn2)cc1N` [Example 81, N^1-[6-(3-Fluoro-2-methoxy-phenyl)-pyrimidin-4-yl]-4-methoxy-benzene-1,3-diamine] showed a pIC50 above 5.00. For the same compound, the “TD50” value in the data set on Primary T cells was determined as 3 µM.

As to `COc1ccc(Nc2cc(-c3ccc(F)cc3OC(C)C)ncn2)cc1N` [Example 86, N^1-[6-(4-Fluoro-2-isopropoxy-phenyl)-pyrimidin-4-yl]-4-methoxy-benzene-1,3-diamine], in data set [1] (Table 1), the pIC50 is above 6.00. Besides, the “TD50” value with Primary T cells stood at 4 µM.

On to `COc1ccccc1-c1cc(Nc2cc(N)c(OC)c(F)c2)ncn1` [Example 88, 5-Fluoro-4-methoxy-N^1-[6-(2-methoxy-phenyl)-pyrimidin-4-yl]-benzene-1,3-diamine], for which the pIC50 in data set [1] is above 6.00. Further, the “TD50” value in the data set on Primary T cells was above 20 µM.

`CCOc1cc(F)ccc1-c1cc(Nc2cc(N)c(OC)c(F)c2)ncn1` [Example 89, N^1-[6-(2-Ethoxy-4-fluoro-phenyl)-pyrimidin-4-yl]-5-fluoro-4-methoxy-benzene-1,3-diamine] showed a negative logarithm of the IC50 (pIC50) in data set [1] (Table 1) above 6.00. Also, the “TD50” value with Primary T cells is above 20 µM.

The compound `COc1cc(F)ccc1-c1cc(Nc2cc(N)c(OC)c(F)c2)ncn1` [Example 90, 5-Fluoro-N^1-[6-(4-fluoro-2-methoxy-phenyl)-pyrimidin-4-yl]-4-methoxy-benzene-1,3-diamine] showed a pIC50 in data set [1] above 6.00. Further, the “TD50” value in the data set with Primary T cells is above 20 µM.

The compound `COc1cc(F)c(Nc2cc(-c3ccccc3OC)ncn2)cc1N` [Example 92, 4-Fluoro-6-methoxy-N^3-[6-(2-methoxy-phenyl)-pyrimidin-4-yl]-benzene-1,3-diamine] had a pIC50 in data set [1] (Table 1) above 5.00. Further, in the data set with Primary T cells, the “TD50” value is above 20 µM.

In data set [1], `CCOc1ccc(Nc2cc(-c3ccccc3OC)ncn2)cc1N` [Example 101, 4-Ethoxy-N^1-[6-(2-methoxy-phenyl)-pyrimidin-4-yl]-benzene-1,3-diamine] had a pIC50 above 6.00. The “TD50” value in the data set on Primary T cells was 12 µM.

As for `CCOc1ccc(Nc2cc(-c3ccc(F)cc3OC)ncn2)cc1N` [Example 105, 4-Ethoxy-N^1-[6-(4-fluoro-2-methoxy-phenyl)-pyrimidin-4-yl]-benzene-1,3-diamine], the pIC50 in data set [1] (Table 1) is above 6.00. In addition, in the data set on Primary T cells, the “TD50” value amounted to 7 µM.

In data set [1], `CCOc1ccc(Nc2cc(-c3ccc(F)cc3OC)ncn2)cc1O` [Example 114, 2-Ethoxy-5-[6-(4-fluoro-2-methoxy-phenyl)-pyrimidin-4-ylamino]-phenol] had a pIC50 above 6.00. Moreover, the “TD50” value with Primary T cells amounted to 10 µM.

Turning to `COc1ccc(Nc2cc(-c3ccc(F)cc3OC)ncn2)cc1NC(C)=O` [Example 117, N-{5-[6-(4-Fluoro-2-methoxy-phenyl)-pyrimidin-4-ylamino]-2-methoxy-phenyl}-acetamide], in data set [1], the pIC50 is above 6.00. The “TD50” value in the data set with Primary T cells (setting [2]) was above 2 µM.

`COC(=O)Nc1cc(Nc2cc(-c3ccc(F)cc3OC)ncn2)ccc1OC` [Example 118, {5-[6-(4-Fluoro-2-methoxy-phenyl)-pyrimidin-4-ylamino]-2-methoxy-phenyl}-carbamic acid methyl ester]: the pIC50 in data set [1] (Table 1) and in data set [1] (Table 5) was above 6.00 each time. In addition, the “TD50” value with Primary T cells (setting [2]) and with Primary T cells (Table 5) was above 2 µM throughout.

In data set [1] (Table 1), `COc1ccc(Nc2cc(-c3cc(F)ccc3OC)ncn2)cc1O` [Example 122, 5-[6-(5-Fluoro-2-methoxy-phenyl)-pyrimidin-4-ylamino]-2-methoxy-phenol] gave a pIC50 above 6.00. For the same compound, in the data set with Primary T cells, the “TD50” value was above 2 µM.

Take `COc1ccc(Nc2cc(-c3ccc(F)cc3OC)ncn2)cc1OC(C)=O` [Example 126, Acetic acid 5-[6-(4-fluoro-2-methoxy-phenyl)-pyrimidin-4-ylamino]-2-methoxy-phenyl ester]: the pIC50 in data set [1] is above 6.00. In the data set on Primary T cells (setting [2]), the “TD50” value is above 2 µM.

With `COc1ccccc1-c1cc(Nc2ccc(C(N)=O)c(Cl)c2)ncn1` [Example 132, 2-Chloro-4-[6-(2-methoxy-phenyl)-pyrimidin-4-ylamino]-benzamide], the pIC50 in data set [1] (Table 1) and in data set [1] (Table 5) was above 6.00 in each case. The “TD50” value with Primary T cells is above 10 µM.

Consider `COC(=O)c1ccc(Nc2cc(-c3ccccc3OC)ncn2)cc1OC` [Example 133, 2-Methoxy-4-[6-(2-methoxy-phenyl)-pyrimidin-4-ylamino]-benzoic acid methyl ester], for which the negative-log IC50 (pIC50) in data set [1] (Table 1) and in data set [1] (Table 5) was above 6.00 in each case. The “TD50” value in the data set with Primary T cells was above 10 µM.

`COc1ccccc1-c1cc(Nc2cc(F)c(OC)c(C(N)=O)c2)ncn1` [Example 137, 3-Fluoro-2-methoxy-5-[6-(2-methoxy-phenyl)-pyrimidin-4-ylamino]-benzamide] gave a pIC50 in data set [1] (Table 1) above 5.00. Moreover, in the data set with Primary T cells, the “TD50” value is above 2 µM.

`COc1cc(F)ccc1-c1cc(Nc2cc(F)c(OC)c(C(N)=O)c2)ncn1` [Example 138, 3-Fluoro-5-[6-(4-fluoro-2-methoxy-phenyl)-pyrimidin-4-ylamino]-2-methoxy-benzamide] showed a pIC50 in data set [1] (Table 1) above 5.00. Further, the “TD50” value in the data set on Primary T cells is above 20 µM.

`CCOc1cc(F)ccc1-c1cc(Nc2cc(F)c(OC)c(C(N)=O)c2)ncn1` [Example 139, 5-[6-(2-Ethoxy-4-fluoro-phenyl)-pyrimidin-4-ylamino]-3-fluoro-2-methoxy-benzamide] showed a pIC50 in data set [1] (Table 1) above 5.00. Besides, the “TD50” value in the data set with Primary T cells is above 20 µM.
